Where a SMILES comes first, the peptide text is derived from it. Bridges are numbered along the chain shown (N, C = ends). [ ]: non-standard residue; d: D form. The star is where a group is joined. ξ: configuration not given here. Phe(4-COOH) = N[C@@H](Cc1ccc(C(=O)O)cc1)C(=O)O; Bip = N[C@@H](Cc1ccc(-c2ccccc2)cc1)C(=O)O; Phe(3-Me) = Cc1cccc(C[C@H](N)C(=O)O)c1; Val(3-OH) = CC(C)(O)[C@H](N)C(=O)O; 4Pal = N[C@@H](Cc1ccncc1)C(=O)O; Cha = N[C@@H](CC1CCCCC1)C(=O)O; Ile(3ξ) = CCC(C)[C@H](N)C(=O)O; Carboxymethyl = O=C(O)C*; Orn = NCCC[C@H](N)C(=O)O; Pra = C#CC[C@H](N)C(=O)O; Dab = NCC[C@H](N)C(=O)O; Dap = NC[C@H](N)C(=O)O
target: T1, human PD-1 / PD-L1-Ig binding on Jurkat cell line over-expressing human PD-1 (Jurkat-PD-1) (Homo sapiens, UniProt Q15116); test: Jurkat-PD-1 Cell Binding High-Content Screening Assay (CBA); type: cell-based; conditions: Jurkat-PD-1 cells, PE-labeled PD-L1-Ig 20 nM final; read-out: Jurkat HPD1_PDL1 IC50
T1 construct: expressed in transfected cells; host or cells: Jurkat
T1 sequence (Q15116 25-288): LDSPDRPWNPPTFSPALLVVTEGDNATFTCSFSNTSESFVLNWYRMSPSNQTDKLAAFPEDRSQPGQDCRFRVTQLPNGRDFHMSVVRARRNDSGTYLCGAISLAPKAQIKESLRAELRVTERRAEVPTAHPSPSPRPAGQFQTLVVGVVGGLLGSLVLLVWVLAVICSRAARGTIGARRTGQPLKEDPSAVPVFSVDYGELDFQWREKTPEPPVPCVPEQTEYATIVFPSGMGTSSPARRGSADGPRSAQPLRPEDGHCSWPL
In short: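 Compounds were preincubated with Jurkat-hPD-1 cells in DMEM plus 10% fetal calf serum for 2 h at 37° C. Phycoerythrin-labeled PD-L1-Ig (20 nM final) was then added for 1 hour. Cells were fixed in 4% paraformaldehyde with Hoechst 33342, and bound fluorescence was quantified by high-content imaging.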

SMILES | IC50 [nM]
Cc1cccc(C[C@@H]2NC(=O)[C@H](CC(=O)O)NC(=O)[C@H](Cc3ccc(C(=O)O)cc3)NC(=O)[C@H](Cc3ccncc3)NC(=O)CSC[C@@H](C(=O)N[C@@H](CCN)C(N)=O)NC(=O)[C@H](CCC(N)=O)NC(=O)[C@H](C(C)C)NC(=O)[C@H](CC3CCCCC3)NC(=O)[C@H](CCN)NC(=O)[C@@H](CC(C)C)NC(=O)[C@H](CCCN)NC(=O)[C@H](Cc3ccc(OCC(=O)O)cc3)NC(=O)[C@H](Cc3ccc(-c4ccccc4)cc3)NC(=O)[C@H](Cc3ccc(OCC(=O)O)cc3)NC2=O)c1 [Compound 2309] ({CH2CO}-[4Pal][Phe(4-COOH)]D[Phe(3-Me)]Y(Carboxymethyl)[Bip]Y(Carboxymethyl)[Orn][dL][Dab][Cha]VQC[Dab]-NH2; thioether N-14) | 5.9
Cc1cccc(C[C@@H]2NC(=O)[C@H](CC(=O)O)NC(=O)[C@H](Cc3ccc(C(=O)O)cc3)NC(=O)[C@H](Cc3ccncc3)NC(=O)CSC[C@@H](C(=O)N[C@@H](CO)C(N)=O)NC(=O)[C@H]([C@@H](C)O)NC(=O)[C@H](C(C)C)NC(=O)[C@H](CC3CCCCC3)NC(=O)[C@H](CCN)NC(=O)[C@@H](CC(C)C)NC(=O)[C@H](CCCN)NC(=O)[C@H](Cc3ccc(OCC(=O)O)cc3)NC(=O)[C@H](Cc3ccc(-c4ccccc4)cc3)NC(=O)[C@H](Cc3ccc(OCC(=O)O)cc3)NC2=O)c1 [Compound 2310] ({CH2CO}-[4Pal][Phe(4-COOH)]D[Phe(3-Me)]Y(Carboxymethyl)[Bip]Y(Carboxymethyl)[Orn][dL][Dab][Cha]VTCS-NH2; thioether N-14) | 7.6
Cc1cccc(C[C@@H]2NC(=O)[C@H](CC(=O)O)NC(=O)[C@H](Cc3ccc(C(=O)O)cc3)NC(=O)[C@H](Cc3ccncc3)NC(=O)CSC[C@@H](C(=O)N[C@@H](CO)C(N)=O)NC(=O)[C@H](CCC(=O)O)NC(=O)[C@H](C(C)C)NC(=O)[C@H](CC3CCCCC3)NC(=O)[C@H](CCN)NC(=O)[C@@H](CC(C)C)NC(=O)[C@H](CCCN)NC(=O)[C@H](Cc3ccc(OCC(=O)O)cc3)NC(=O)[C@H](Cc3ccc(-c4ccccc4)cc3)NC(=O)[C@H](Cc3ccc(OCC(=O)O)cc3)NC2=O)c1 [Compound 2311] ({CH2CO}-[4Pal][Phe(4-COOH)]D[Phe(3-Me)]Y(Carboxymethyl)[Bip]Y(Carboxymethyl)[Orn][dL][Dab][Cha]VECS-NH2; thioether N-14) | 11.7
Cc1cccc(C[C@@H]2NC(=O)[C@H](CC(=O)O)NC(=O)[C@H](Cc3ccc(C(=O)O)cc3)NC(=O)[C@H](Cc3ccncc3)NC(=O)CSC[C@@H](C(=O)N[C@@H](CO)C(N)=O)NC(=O)[C@H](CCC(N)=O)NC(=O)[C@H](C(C)C)NC(=O)[C@H](CC3CCCCC3)NC(=O)[C@H](CCN)NC(=O)[C@@H](CC(C)C)NC(=O)[C@H](CCCN)NC(=O)[C@H](Cc3ccc(OCC(=O)O)cc3)NC(=O)[C@H](Cc3ccc(-c4ccccc4)cc3)NC(=O)[C@H](Cc3ccc(OCC(=O)O)cc3)NC2=O)c1 [Compound 2312] ({CH2CO}-[4Pal][Phe(4-COOH)]D[Phe(3-Me)]Y(Carboxymethyl)[Bip]Y(Carboxymethyl)[Orn][dL][Dab][Cha]VQCS-NH2; thioether N-14) | 7.9
Cc1cccc(C[C@@H]2NC(=O)[C@H](CC(=O)O)NC(=O)[C@H](Cc3ccc(C(=O)O)cc3)NC(=O)[C@H](Cc3ccncc3)NC(=O)CSC[C@@H](C(=O)N[C@H](CC(N)=O)C(N)=O)NC(=O)[C@H](CO)NC(=O)[C@H](C(C)C)NC(=O)[C@H](CC3CCCCC3)NC(=O)[C@H](CCN)NC(=O)[C@@H](CC(C)C)NC(=O)[C@H](CCCN)NC(=O)[C@H](Cc3ccc(OCC(=O)O)cc3)NC(=O)[C@H](Cc3ccc(-c4ccccc4)cc3)NC(=O)[C@H](Cc3ccc(OCC(=O)O)cc3)NC2=O)c1 [Compound 2313] ({CH2CO}-[4Pal][Phe(4-COOH)]D[Phe(3-Me)]Y(Carboxymethyl)[Bip]Y(Carboxymethyl)[Orn][dL][Dab][Cha]VSC[dN]-NH2; thioether N-14) | 13.1
Cc1cccc(C[C@@H]2NC(=O)[C@H](CC(=O)O)NC(=O)[C@H](Cc3ccc(C(=O)O)cc3)NC(=O)[C@H](Cc3ccncc3)NC(=O)CSC[C@@H](C(=O)N[C@H](CC(N)=O)C(N)=O)NC(=O)[C@H](CCC(=O)O)NC(=O)[C@H](C(C)C)NC(=O)[C@H](CC3CCCCC3)NC(=O)[C@H](CCN)NC(=O)[C@@H](CC(C)C)NC(=O)[C@H](CCCN)NC(=O)[C@H](Cc3ccc(OCC(=O)O)cc3)NC(=O)[C@H](Cc3ccc(-c4ccccc4)cc3)NC(=O)[C@H](Cc3ccc(OCC(=O)O)cc3)NC2=O)c1 [Compound 2314] ({CH2CO}-[4Pal][Phe(4-COOH)]D[Phe(3-Me)]Y(Carboxymethyl)[Bip]Y(Carboxymethyl)[Orn][dL][Dab][Cha]VEC[dN]-NH2; thioether N-14) | 45.8
CCC(C)[C@@H]1NC(=O)[C@H](Cc2ccc(-c3ccccc3)cc2)NC(=O)[C@H](Cc2ccc(OCC(=O)O)cc2)NC(=O)[C@H](Cc2cccc(C)c2)NC(=O)[C@H](CC(=O)O)NC(=O)[C@H](Cc2ccc(C(=O)O)cc2)NC(=O)[C@H](Cc2ccncc2)NC(=O)CSC[C@@H](C(=O)N[C@@H](CC(N)=O)C(N)=O)NC(=O)[C@H]([C@@H](C)O)NC(=O)[C@H](C(C)C)NC(=O)[C@H](CC2CCCCC2)NC(=O)[C@H](CCN)NC(=O)[C@@H](CC(C)C)NC(=O)[C@H](CCCN)NC1=O (stereo partly drawn) [Compound 2315] ({CH2CO}-[4Pal][Phe(4-COOH)]D[Phe(3-Me)]Y(Carboxymethyl)[Bip][Ile(3ξ)][Orn][dL][Dab][Cha]VTCN-NH2; thioether N-14) | 33.1
C#CC[C@H](NC(=O)[C@H](CCN)NC(=O)[C@@H]1CSCC(=O)N[C@@H](CN)C(=O)N[C@@H](Cc2ccc(OCC(=O)O)cc2)C(=O)N[C@@H](CC(=O)O)C(=O)N[C@@H](Cc2cccc(C)c2)C(=O)N[C@@H](Cc2ccc(OCC(=O)O)cc2)C(=O)N[C@@H](Cc2ccc(-c3ccccc3)cc2)C(=O)N[C@@H](Cc2ccc(OCC(=O)O)cc2)C(=O)N[C@@H](CCCN)C(=O)N[C@H](CC(C)C)C(=O)N[C@@H](CCN)C(=O)N[C@@H](CC2CCCCC2)C(=O)N[C@@H](C(C)(C)O)C(=O)N[C@@H](CO)C(=O)N1)C(=O)O [Compound 2316] ({CH2CO}-[Dap]Y(Carboxymethyl)D[Phe(3-Me)]Y(Carboxymethyl)[Bip]Y(Carboxymethyl)[Orn][dL][Dab][Cha][Val(3-OH)]SC[Dab][Pra]-OH; thioether N-14) | 6.5
C#CC[C@H](NC(=O)[C@H](CCN)NC(=O)[C@@H]1CSCC(=O)N[C@@H](Cc2ccncc2)C(=O)N[C@@H](Cc2ccc(OCC(=O)O)cc2)C(=O)N[C@@H](CC(=O)O)C(=O)N[C@@H](Cc2cccc(C)c2)C(=O)N[C@@H](Cc2ccc(OCC(=O)O)cc2)C(=O)N[C@@H](Cc2ccc(-c3ccccc3)cc2)C(=O)N[C@@H](Cc2ccc(OCC(=O)O)cc2)C(=O)N[C@@H](CCCN)C(=O)N[C@H](CC(C)C)C(=O)N[C@@H](CCN)C(=O)N[C@@H](CC2CCCCC2)C(=O)N[C@@H](C(C)(C)O)C(=O)N[C@@H](CO)C(=O)N1)C(=O)O [Compound 2317] ({CH2CO}-[4Pal]Y(Carboxymethyl)D[Phe(3-Me)]Y(Carboxymethyl)[Bip]Y(Carboxymethyl)[Orn][dL][Dab][Cha][Val(3-OH)]SC[Dab][Pra]-OH; thioether N-14) | 576
C#CC[C@H](NC(=O)[C@H](CCN)NC(=O)[C@@H]1CSCC(=O)N[C@@H](Cc2ccncc2)C(=O)N[C@@H](Cc2ccc(C(=O)O)cc2)C(=O)N[C@@H](CC(=O)O)C(=O)N[C@@H](Cc2cccc(C)c2)C(=O)N[C@@H](Cc2ccc(OCC(=O)O)cc2)C(=O)N[C@@H](Cc2ccc(-c3ccccc3)cc2)C(=O)N[C@@H](Cc2ccc(OCC(=O)O)cc2)C(=O)N[C@@H](CCCN)C(=O)N[C@H](CC(C)C)C(=O)N[C@@H](CCN)C(=O)N[C@@H](CC2CCCCC2)C(=O)N[C@@H](C(C)(C)O)C(=O)N[C@@H](CO)C(=O)N1)C(=O)O [Compound 2318] ({CH2CO}-[4Pal][Phe(4-COOH)]D[Phe(3-Me)]Y(Carboxymethyl)[Bip]Y(Carboxymethyl)[Orn][dL][Dab][Cha][Val(3-OH)]SC[Dab][Pra]-OH; thioether N-14) | 678
C#CC[C@H](NC(=O)CNC(=O)[C@@H]1CSCC(=O)N[C@@H](CCN)C(=O)N[C@@H](Cc2ccc(OCC(=O)O)cc2)C(=O)N[C@@H](CC(=O)O)C(=O)N[C@@H](Cc2c[nH]c3ccccc23)C(=O)N[C@@H](C(C)C)C(=O)N[C@@H](Cc2ccc(-c3ccccc3)cc2)C(=O)N[C@@H](C(C)CC)C(=O)N[C@@H](CCCN)C(=O)N[C@H](CC(C)C)C(=O)N[C@@H](CCN)C(=O)N[C@@H](CC2CCCCC2)C(=O)N[C@@H](C(C)(C)O)C(=O)N[C@@H](CO)C(=O)N1)C(=O)O (stereo partly drawn) [Compound 2319] ({CH2CO}-[Dab]Y(Carboxymethyl)DWV[Bip][Ile(3ξ)][Orn][dL][Dab][Cha][Val(3-OH)]SCG[Pra]-OH; thioether N-14) | 24.3
C#CC[C@H](NC(=O)CNC(=O)[C@@H]1CSCC(=O)N[C@@H](CN)C(=O)N[C@@H](Cc2ccc(OCC(=O)O)cc2)C(=O)N[C@@H](CC(=O)O)C(=O)N[C@@H](Cc2cccc(C)c2)C(=O)N[C@@H](Cc2ccc(OCC(=O)O)cc2)C(=O)N[C@@H](Cc2ccc(-c3ccccc3)cc2)C(=O)N[C@@H](Cc2ccc(OCC(=O)O)cc2)C(=O)N[C@@H](CCCN)C(=O)N[C@H](CC(C)C)C(=O)N[C@@H](CCN)C(=O)N[C@@H](CC2CCCCC2)C(=O)N[C@@H](C(C)(C)O)C(=O)N[C@@H](CO)C(=O)N1)C(N)=O [Compound 2321] ({CH2CO}-[Dap]Y(Carboxymethyl)D[Phe(3-Me)]Y(Carboxymethyl)[Bip]Y(Carboxymethyl)[Orn][dL][Dab][Cha][Val(3-OH)]SCG[Pra]-NH2; thioether N-14) | 19.3

From patent US20250163104A1, “MACROCYCLIC IMMUNOMODULATORS” (priority 2021, published 2025)
